Data on three compounds can be found in publication PMC8949893, “Chemical Synthesis, Pharmacokinetic Properties and Biological Effects of JM-00266, a Putative Non-Brain Penetrant Cannabinoid Receptor 1 Inverse Agonist” (International Journal of Molecular Sciences, 2022).

For data set [1], the system named is mice. The experiment in a line: Food intake in 24-h food-deprived mice. It is filed as in vivo. The conditions noted are these: ACEA 1 mg/kg i.p. Here is the method:
For food intake experiments, mice were food-deprived for 24 h before being submitted to an i.p. injection of ACEA (1 mg·kg^−1). […] Cumulative food intake was measured every hour over a period of 3 h from refeeding.

Data set [2] has as its system mice. In words: Body (rectal) temperature measurement. In kind it is in vivo. As to the method: Mice rectal temperature was assessed using a VT4810 controller (Vertex Technology Corp., New Taipei City, Taiwan) adapted with a mouse rectal probe. In the first experiment, the impact of anandamide (10 mg·kg^−1) on body temperature was recorded during 30 min on animals injected either 20 min earlier with vehicle or JM-00266 (20 mg·kg^−1).

Data set [3] is described as follows: Plasma kinetic profile after i.p., oral or intravenous administration. In kind it is in vivo, mice. The conditions noted are these: mice, 10 mg·kg−1, i.p. or oral. As to the method:
(§1) At 1, 2, 4 and 8 h post-administration, animals were killed by cervical dislocation and blood was collected from the vena cava into tubes containing heparin and centrifuged immediately at 6500× g for 10 min at 4 °C. For determination of tissue distribution, brain, liver and adipose tissue were collected 4 h post-gavage. Plasma and tissue samples were directly extracted for further analysis by Liquid chromatography coupled to tandem mass spectrometry (LC-MS/MS).
(§2) Tissues were homogenized with a mini-bead beater (BioSpec Products, Bartlesville, OK) in 10 volumes of acetonitrile containing 15 ng of internal standard, JM-00252. Blood samples were centrifuged at 6500× g during 10 min 4 °C and 5 µL of plasma were diluted in 10 volumes of acetonitrile containing 15 ng of internal standard. Then, each homogenate of tissue or plasma was centrifuged for 10 min at 6500× g and the supernatant was recovered and carefully transferred to new glass tubes. Finally, the extract was injected into a 1200 LC system coupled to a 6460-QqQ MS/MS system equipped with a JetStream ESI source (Agilent technologies, Les Ulis, France). Separation was achieved on a Poroshell 120 EC-C8 2.1 mm × 100 mm, 2.7 µm column (Agilent technologies) at a flow rate of 0.4 mL.min^−1, 55 °C, with a linear gradient of (solvent A) water containing 1 mM ammonium formate and 0.2% formic acid and (solvent B) methanol containing 1 mM ammonium formate and 0.2% formic acid and as follows: 50% B for 1 min, up to 100% B in 4 min, and then maintained at 100% for 2 min. The acquisition was performed in positive Single Reaction Monitoring (SRM) mode (source temperature: 300 °C, nebulizer gas flow rate was 10 L·min^−1, 15 psi, sheath gas flow 7 L·min^−1, temperature 225 °C, capillary 4000 V, nozzle 1500 V). […] Results are expressed as ng·g^−1 for tissues and ng·mL^−1 for plasma.

Data set [4] in a line: Tissue distribution 4 h after gavage. It is filed as in vivo. The conditions noted are these: mice, 4 h after gavage in oil, 10 mg·kg−1. As to the method:
as §1, §2

Data set [5] can be described thus: Brain/plasma ratio (B/P). The conditions noted are these: mice. It is filed as in vivo. As to the method:
as §2
Brain/plasma ratios (B/P) were determined as previously described. […] Blood and brain were collected and directly extracted for further analysis by LC-MS/MS.

The subject of data set [6] is mice. In words: Open field test (anxiety-related behavior). It is filed as in vivo. The conditions noted are these: 10 mg·kg−1 i.p. 30 min before, 10 min exploration. As to the method: Anxiety-related behavior was assessed using the open field test (OF; Mouse Open Field Arena ENV-510; Med Associates Inc., Fairfax, VT, USA). […] The two regions were defined by grid lines that divided each box into the center and periphery, with each of the four lines being 11 cm from each wall.

Data set [7] concerns mice. The experiment in a line: Gastro-intestinal transit (charcoal marker). It is filed as in vivo. The note with it: anandamide 10 mg·kg−1. Here is the method:
Short-term effects of JM-00266 on gastro-intestinal transit were tested as an indicator of peripheral CB1R activity. Transit was measured by administering a non-absorbed marker (10% charcoal suspension in 5% gum arabic) as previously described.

For `CCCCC/C=C\C/C=C\C/C=C\C/C=C\CCCC(=O)NCCCl.O` [ACEA, Arachidonyl-2′-chloroethylamide hydrate], the “Cumulative 3-h food intake, agonist alone” value in data set [1] is “no effect on food intake”. Moreover, the “Effect on rectal temperature, agonist alone” value in data set [2] (ACEA 1 mg·kg−1, t = 30 min) is “hypothermic response”.
One may read the Kp as the ratio of the level in a tissue or fluid to that in plasma or blood. As to `Cc1c(C(=O)NN2CCCCC2)nn(-c2ccc(Cl)cc2Cl)c1-c1ccc(Cl)cc1` [Rimonabant, reference compound], the “Cumulative 3-h food intake, co-administration with ACEA” value in data set [1] (Rimonabant 10 mg·kg−1, JM-00266 20 mg·kg−1) is recorded as “strong hypophagia”. Also, the “Bioavailability compared with JM-00266, whatever the administration route” value in data set [3] is “far higher”. Also, the “Tissue distribution (plasma, brain, liver, visceral adipose tissue)” value in data set [4] is “preferentially accumulated in the liver and the adipose tissue whereas brain concentration remained very low”. The “Effect on hypothermic response to ACEA” value in data set [2] (pre-treatment 20 min before ACEA 1 mg·kg−1, Rimonabant 10 mg·kg−1, JM-00266 20 mg·kg−1, t = 30 min) is on record as “fully inhibited the hypothermic response”. Besides, in data set [5] (10 mg·kg−1, i.p. vs oral), the “Effect of the administration route on distribution in brain and plasma” value is reported as “strongly affected”. Moreover, the Kp in data set [5] (mouse, brain, intraperitoneal, 10 mg·kg−1, i.p. or oral, DMSO/Tween 80 aqueous solution, at maximal absorption time point) is above 1. Also, in data set [6], the “Open field: locomotor activity (total ambulatory distance)” value is reported as “did not significantly alter”, the “Open field: number of center entries” value is given as “did not significantly alter” and the “Open field: time spent in the center” value is listed as “significantly decreased”.
In the case of `CCCCC/C=C\C/C=C\C/C=C\C/C=C\CCCC(=O)NCCO` [anandamide, Arachidonylethanolamide, reference compound], the “Effect on gastro-intestinal transit, agonist alone” value in data set [7] is on record as “slowing down of gastro-intestinal transit”. In addition, in data set [2] (anandamide 10 mg·kg−1), the “Effect on rectal temperature, agonist alone” value is “decrease in rectal temperature”.
